Key:
[1] = system: bermudagrass; test: Test F preemergence test; assay type: in vivo, Cynodon dactylon; details: scale 0 to 100
Summary of the method: (§1)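 Compounds in a non-phytotoxic solvent formulation with surfactant were applied before emergence after sowing, or, for sugarcane, also postemergence. Evaluation was visual, against controls, after 14 to 21 greenhouse days.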

[2] = system: kochia; test: Test F preemergence test; assay type: in vivo, Kochia scoparia; details: scale 0 to 100
Summary of the method: as §1

[3] = system: purple nutsedge; test: Test F preemergence test; assay type: in vivo, Cyperus rotundus; details: scale 0 to 100
Summary of the method: as §1

[4] = system: common ragweed; test: Test F preemergence test; assay type: in vivo, Ambrosia elation; details: scale 0 to 100
Summary of the method: as §1

[5] = system: mustard; test: Test F preemergence test; assay type: in vivo, Brassica nigra; details: scale 0 to 100
Summary of the method: as §1

[6] = system: broadleaf signalgrass; test: Test F preemergence test; assay type: in vivo, Brachiaria platyphylla; details: scale 0 to 100
Summary of the method: as §1

[7] = system: goosegrass; test: Test F preemergence test; assay type: in vivo, Eleusine indica; details: scale 0 to 100
Summary of the method: as §1

[8] = system: Russian thistle; test: Test C pre-/postemergence test; assay type: in vivo, Salsola kali
Summary of the method: (§2)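 Compounds in a non-phytotoxic solvent with surfactant applied preemergence to seeded pots and, at the same time, postemergence to plants 2–18 cm tall (1- to 4-leaf stage). Paddy tests: pots flooded to 3 cm, compound applied into the water, depth held throughout.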

[9] = system: Italian ryegrass; test: Test F preemergence test; assay type: in vivo, Lolium multiflorum; details: scale 0 to 100
Summary of the method: as §1

[10] = system: barnyardgrass; test: Test F preemergence test; assay type: in vivo, Echinochloa crus-galli
Summary of the method: as §1

[11] = system: corn; test: Test C pre-/postemergence test; assay type: in vivo, Zea mays
Summary of the method: as §2

[12] = system: large crabgrass; test: Test F preemergence test; assay type: in vivo, Digitaria sanguinalis; details: scale 0 to 100
Summary of the method: as §1

[13] = system: southern sandbur; test: Test F preemergence test; assay type: in vivo, Cenchrus echinatus; details: scale 0 to 100
Summary of the method: as §1

[14] = system: Surinam grass; test: Test F preemergence test; assay type: in vivo, Brachiaria decumbens; details: scale 0 to 100
Summary of the method: as §1

[15] = system: woolly cupgrass; test: Test C pre-/postemergence test; assay type: in vivo, Eriochloa villosa
Summary of the method: as §2

[16] = system: blackgrass; test: Test C pre-/postemergence test; assay type: in vivo, Alopecurus myosuroides
Summary of the method: as §2

[17] = system: quackgrass; test: Test F preemergence test; assay type: in vivo, Elytrigia repens; details: scale 0 to 100
Summary of the method: as §1

[18] = 62 g ai/ha, Preemergence, scale 0 to 100
[19] = 125 g ai/ha, preemergence, scale 0 (no effect) to 100 (complete control)
[20] = Preemergence, 31 g ai/ha, scale 0 to 100 (0 no effect, 100 complete control)
[21] = preemergence, 250 g ai/ha, scale 0 (no effect) to 100 (complete control)
[22] = Postemergence, 62 g ai/ha, scale 0 to 100, 0 no effect, 100 complete control
[23] = Postemergence, 125 g ai/ha, scale 0 to 100, 0 no effect, 100 complete control
[24] = Postemergence, 250 g ai/ha, scale 0 to 100, 0 no effect, 100 complete control

## Cn1nc(C(F)(F)F)c(C[S+]([O-])c2ccc(Cl)c[n+]2[O-])c1OCC(F)(F)F (racemic) [Compound 62]
[1]; 16 g ai/ha, preemergence
  Plant response rating, Bermudagrass: 20
[1]; 62 g ai/ha, Preemergence
  Bermudagrass plant response rating: 75
[1]; 125 g ai/ha, preemergence
  Bermudagrass plant response rating: 100
[1]; Preemergence, 31 g ai/ha
  Plant response rating, Bermudagrass: 20
[2]; 16 g ai/ha, preemergence
  Plant response rating, Kochia: 0
[2]; 62 g ai/ha, Preemergence
  Kochia plant response rating: 15
[2]; 125 g ai/ha, preemergence
  Kochia plant response rating: 100
[2]; Preemergence, 31 g ai/ha
  Plant response rating, Kochia: 0
[3]; 16 g ai/ha, preemergence
  Plant response rating, Purple Nutsedge: 0
[3]; 62 g ai/ha, Preemergence
  Purple Nutsedge plant response rating: 65
[3]; 125 g ai/ha, preemergence
  Purple Nutsedge plant response rating: 75
[3]; Preemergence, 31 g ai/ha
  Plant response rating, Purple Nutsedge: 35
[4]; 16 g ai/ha, preemergence
  Plant response rating, Ragweed: 60
[4]; 125 g ai/ha, preemergence
  Ragweed plant response rating: 80
[4]; Preemergence, 62 g ai/ha
  Plant response rating, Ragweed: 70
[4]; Preemergence, 31 g ai/ha
  Plant response rating, Ragweed: 60
[5]; 16 g ai/ha, preemergence
  Plant response rating, Black Mustard: 20
[5]; 62 g ai/ha, Preemergence
  Black Mustard plant response rating: 90
[5]; 125 g ai/ha, preemergence
  Black Mustard plant response rating: 98
[5]; Preemergence, 31 g ai/ha
  Plant response rating, Black Mustard: 0
[6]; 16 g ai/ha, preemergence
  Plant response rating, Signalgrass: 40
[6]; 125 g ai/ha, preemergence
  Signalgrass plant response rating: 95
[6]; Preemergence, 62 g ai/ha
  Plant response rating, Signalgrass: 75
[6]; Preemergence, 31 g ai/ha
  Plant response rating, Signalgrass: 40
[7]; 16 g ai/ha, preemergence
  Plant response rating, Goosegrass: 50
[7]; 62 g ai/ha, Preemergence
  Goosegrass plant response rating: 98
[7]; 125 g ai/ha, preemergence
  Goosegrass plant response rating: 100
[7]; Preemergence, 31 g ai/ha
  Plant response rating, Goosegrass: 65
[8]; [18]
  Russian Thistle plant response rating: 100
[8]; [19]
  Russian Thistle plant response rating: 100
[8]; [20]
  Plant response rating, Russian Thistle: 100
[8]; [21]
  Russian Thistle plant response rating: 100
[9]; 16 g ai/ha, preemergence
  Plant response rating, Ryegrass, Italian: 50
[9]; 125 g ai/ha, preemergence
  Ryegrass, Italian plant response rating: 100
[9]; Preemergence, 62 g ai/ha
  Plant response rating, Ryegrass, Italian: 100
[9]; Preemergence, 31 g ai/ha
  Plant response rating, Ryegrass, Italian: 98
[10]; 16 g ai/ha, preemergence, scale 0 to 100 (0 no effect, 100 complete control)
  Plant response rating, Barnyardgrass: 30
[10]; [18]
  Barnyardgrass plant response rating: 100
[10]; 125 g ai/ha, preemergence, scale 0 to 100
  Barnyardgrass plant response rating: 100
[10]; Preemergence, 31 g ai/ha, scale 0 to 100
  Plant response rating, Barnyardgrass: 75
[11]; [18]
  Corn plant response rating: 98
[11]; [19]
  Corn plant response rating: 100
[11]; Postemergence, 31 g ai/ha
  Plant response rating (0 to 100), Corn: 0
[11]; [22]
  Plant response rating, Corn: 0
[11]; [23]
  Plant response rating, Corn: 0
[11]; [24]
  Plant response rating, Corn: 10
[11]; [20]
  Plant response rating, Corn: 80
[11]; [21]
  Corn plant response rating: 100
[12]; 16 g ai/ha, preemergence
  Plant response rating, Crabgrass, Large: 15
[12]; 62 g ai/ha, Preemergence
  Crabgrass, Large plant response rating: 90
[12]; 125 g ai/ha, preemergence
  Crabgrass, Large plant response rating: 98
[12]; Preemergence, 31 g ai/ha
  Plant response rating, Crabgrass, Large: 60
[13]; 16 g ai/ha, preemergence
  Plant response rating, Sandbur: 25
[13]; 125 g ai/ha, preemergence
  Sandbur plant response rating: 98
[13]; Preemergence, 62 g ai/ha
  Plant response rating, Sandbur: 98
[13]; Preemergence, 31 g ai/ha
  Plant response rating, Sandbur: 75
[14]; 16 g ai/ha, preemergence
  Plant response rating, Surinam Grass: 60
[14]; 125 g ai/ha, preemergence
  Surinam Grass plant response rating: 100
[14]; Preemergence, 62 g ai/ha
  Plant response rating, Surinam Grass: 100
[14]; Preemergence, 31 g ai/ha
  Plant response rating, Surinam Grass: 95
[15]; [18]
  Cupgrass, Woolly plant response rating: 70
[15]; [19]
  Cupgrass, Woolly plant response rating: 100
[15]; Postemergence, 31 g ai/ha
  Plant response rating (0 to 100), Cupgrass, Woolly: 0
[15]; [22]
  Plant response rating, Cupgrass, Woolly: 0
[15]; [23]
  Plant response rating, Cupgrass, Woolly: 0
[15]; [24]
  Plant response rating, Cupgrass, Woolly: 50
[15]; [20]
  Plant response rating, Cupgrass, Woolly: 0
[15]; [21]
  Cupgrass, Woolly plant response rating: 100
[16]; [18]
  Blackgrass plant response rating: 98
[16]; [19]
  Blackgrass plant response rating: 100
[16]; Postemergence, 31 g ai/ha
  Plant response rating (0 to 100), Blackgrass: 40
[16]; [22]
  Plant response rating, Blackgrass: 40
[16]; [23]
  Plant response rating, Blackgrass: 60
[16]; [24]
  Plant response rating, Blackgrass: 80
[16]; [20]
  Plant response rating, Blackgrass: 90
[16]; [21]
  Blackgrass plant response rating: 100
[17]; 16 g ai/ha, preemergence
  Plant response rating, Quackgrass: 40
[17]; 62 g ai/ha, Preemergence
  Quackgrass plant response rating: 75
[17]; 125 g ai/ha, preemergence
  Quackgrass plant response rating: 98
[17]; Preemergence, 31 g ai/ha
  Plant response rating, Quackgrass: 75

— patent US20100298141A1, “SUBSTITUTED PYRIDINE N-OXIDE HERBICIDES” (E. I. DU PONT DE NEMOURS AND COMPANY, priority 2007, published 2010)
